Where two headings read alike, the source gives them in different places.
Tests used:
[1] = target: P99 class C beta-lactamase (Enterobacter cloacae, UniProt P05364); assay: BLAC1 method, nitrocefin (CPR) rate with P99 (Example 7); assay type: biochemical; settings: for linear regression coefficient a (Y=aX+b), P99 / linear regression coefficient b (Y=aX+b), P99: BLAC1, X in mg/L
Method: (§1) The dilution buffer for the enzymes, CPR, standards and samples was 50 mM PBS buffer, pH 7.0.
(§2) The stock solution of CPR was 200 μM. Standards solution of ampicillin and cefuroxime were prepared at 100, 75, 50, 30, 15, 5, 1 and 0 mg/L.
In the method 1 (BLAC1), 10 μl of 50-fold diluted sample, 100 μl of CPR and 100 μl of enzyme P99 were mixed. The reaction kinetics was determined by measuring the absorbance at 482 nm as a function of time. Enzyme activity v0 max was adjusted at +/−0.33 ΔAbs482/min.

[2] = target: class C beta-lactamase of Enterobacter cloacae P99 (Enterobacter cloacae, UniProt P05364); settings: cited from earlier work
[3] = test system: Oxa-29 class D beta-lactamase; assay: BLAC2 method, nitrocefin (CPR) rate with Oxa-29; assay type: biochemical; settings: for linear regression coefficient a (Y=aX+b), Oxa-29 / linear regression coefficient b (Y=aX+b), Oxa-29: BLAC2, X in mg/L
Method: as §1, §2
In the method 2 (BLAC2), 99 μl of sample, 99 μl of CPR and 22 μl of enzyme Oxa-29 were mixed. The reaction kinetics was determined by measuring the absorbance at 482 nm as a function of time. Enzyme activity v0 max was adjusted at +/−0.2 ΔAbs482/min.

[4] = target: class C beta-lactamase of Escherichia coli K12 (Escherichia coli, UniProt P00811); settings: cited from earlier work
[5] = target: class C beta-lactamase of Pseudomonas aeruginosa (Pseudomonas aeruginosa, UniProt P24735); settings: Pseudomonas aeruginosa, cited from earlier work; for Km: read-out: Km
[6] = target: class A beta-lactamase (penicillinase) TEM-1 (Escherichia coli, UniProt P62593); assay: BLAC2 method, nitrocefin (CPR) rate with Tem-1; assay type: biochemical; settings: even at 100 mg/L, fixed CPR
Method: In order to determine the concentration of ampicillin in a solution, two beta-lactamases were compared, in particular the class A beta-lactamase (penicillinase) TEM-1 (UniProt: C514X2_ECOLX) and the class C beta-lactamase of Enterobacter cloacae P99 described in Example 1.
The dilution buffer for the enzymes, nitrocefin (CPR), standards and samples was 50 mM PBS buffer, pH 7. The stock solution of CPR was 200 μM. The standard solution of ampicillin was prepared at concentrations of 100, 75, 50, 30, 15, 5, 1 and 0 mg/L.
In the method 2 (BLAC2), 99 μl of sample, 99 μl of CPR and 22 μl of enzyme, i.e. Tem-1 or P99, were mixed. The enzyme activity (v0 max) was adjusted at +/−0.2 ΔAbs482/min.

[7] = test system: class C beta-lactamase of Enterobacter cloacae 908R; settings: cited from earlier work
[8] = target: class C beta-lactamase of Serratia marcescens (Serratia marcescens, UniProt P18539); settings: Serratia marcescens, cited from earlier work; for Km: read-out: Km
[9] = target: class C beta-lactamase of Citrobacter freundii (Citrobacter freundii, UniProt P05193); settings: cited from earlier work
P99A266C [10] = target: T1, P99A266C (Enterobacter cloacae, UniProt P05364, A266C); assay: Reaction of immobilized enzyme on ATR element with chromogenic substrate CENTA; assay type: biochemical, Enterobacter cloacae P99
T1 construct: made in house; host or cells: E. coli BL21(DE3), pET28 vector
Method: On the N-maleimide functionalized ATR element, the class C beta-lactamase P99A266C prepared as in example 2 was bound.
P99A266C binding onto the functionalized crystal was obtained by depositing 10 μL of a solution (phosphate buffer 50 mM, pH 7) of P99A266C enzyme (30 μg/ml) during 1 h, then rinsing with buffer during 15 min at a rate of 35 μL/min.
The immobilized enzyme was able to react rapidly with its chromogenic substrate CENTA: this was controlled by the appearance of the […] coloration.

P99A266C [11] = target: T1, P99A266C; assay: FTIR-ATR biosensor binding; set-up: species or system Enterobacter cloacae P99; settings: 50-100 μg/mL, 10-20 min, 35 μl/min
Method: A solution of the beta-lactam antibiotic cefuroxim; obtained from Sigma-Aldrich in milliQ water at a concentration of 50-100 μg/mL was passed over the biosensor constructed in Example 3. The solution was passed over the crystal during 10-20 min at a rate of 35 μl/min.
FTIR-ATR spectra were recorded and cefuroxim binding was monitored by following the appearance of its characteristic signal. By subtracting the spectrum of the P99A266C, the spectrum of the acyl-enzyme complex appeared clearly. The intensity of the peak at 1730 cm^−1 allowed the quantitative measurement of cefuroxim binding. […] The structure of the acyl-enzyme complex is represented below.

Chain of class C beta-lactamase of Enterobacter cloacae P99 (P05364 21-381): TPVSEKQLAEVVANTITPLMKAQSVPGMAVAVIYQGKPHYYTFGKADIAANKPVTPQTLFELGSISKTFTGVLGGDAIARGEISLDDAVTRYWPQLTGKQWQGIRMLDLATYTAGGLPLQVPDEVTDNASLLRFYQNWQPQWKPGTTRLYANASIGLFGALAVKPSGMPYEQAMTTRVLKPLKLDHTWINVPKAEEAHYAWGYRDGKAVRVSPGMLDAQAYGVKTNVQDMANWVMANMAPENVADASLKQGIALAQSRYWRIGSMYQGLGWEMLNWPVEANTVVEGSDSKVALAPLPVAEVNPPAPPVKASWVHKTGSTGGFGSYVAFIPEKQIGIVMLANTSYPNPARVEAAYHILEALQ
Chain of P99 class C beta-lactamase (P05364 21-381): as above
Chain of class C beta-lactamase of Escherichia coli K12 (P00811 20-377): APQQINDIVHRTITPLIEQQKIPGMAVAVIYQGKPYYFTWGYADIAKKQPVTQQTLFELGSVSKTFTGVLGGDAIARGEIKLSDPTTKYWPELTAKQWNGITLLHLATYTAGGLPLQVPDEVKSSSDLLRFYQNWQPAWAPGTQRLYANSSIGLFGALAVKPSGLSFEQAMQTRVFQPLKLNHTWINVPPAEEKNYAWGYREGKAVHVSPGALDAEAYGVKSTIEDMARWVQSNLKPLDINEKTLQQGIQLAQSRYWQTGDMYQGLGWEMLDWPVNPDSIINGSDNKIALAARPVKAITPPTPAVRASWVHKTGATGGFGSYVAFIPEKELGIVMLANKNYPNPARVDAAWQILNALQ
Chain of class C beta-lactamase of Citrobacter freundii (P05193 21-381): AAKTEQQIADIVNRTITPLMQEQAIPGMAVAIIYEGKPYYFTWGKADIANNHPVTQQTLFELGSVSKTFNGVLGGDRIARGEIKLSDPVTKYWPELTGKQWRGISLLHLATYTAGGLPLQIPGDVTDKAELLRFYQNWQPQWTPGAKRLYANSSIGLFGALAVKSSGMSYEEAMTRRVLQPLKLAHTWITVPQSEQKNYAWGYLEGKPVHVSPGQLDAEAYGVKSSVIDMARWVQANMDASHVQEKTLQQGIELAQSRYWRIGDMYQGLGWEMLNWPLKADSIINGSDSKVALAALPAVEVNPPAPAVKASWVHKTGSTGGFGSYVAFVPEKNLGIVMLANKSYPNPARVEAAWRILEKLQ
Chain of class C beta-lactamase of Serratia marcescens (P18539 22-376): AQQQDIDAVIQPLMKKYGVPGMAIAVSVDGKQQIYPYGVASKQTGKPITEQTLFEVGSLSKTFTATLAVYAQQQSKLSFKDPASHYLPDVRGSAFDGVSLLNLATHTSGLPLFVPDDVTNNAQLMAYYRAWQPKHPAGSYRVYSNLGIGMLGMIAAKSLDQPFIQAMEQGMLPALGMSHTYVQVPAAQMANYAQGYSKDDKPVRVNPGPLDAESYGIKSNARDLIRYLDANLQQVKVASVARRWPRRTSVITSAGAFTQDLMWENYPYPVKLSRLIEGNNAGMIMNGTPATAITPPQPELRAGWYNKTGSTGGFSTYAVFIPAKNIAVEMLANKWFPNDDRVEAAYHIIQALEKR
Chain of class C beta-lactamase of Pseudomonas aeruginosa (P24735 27-397): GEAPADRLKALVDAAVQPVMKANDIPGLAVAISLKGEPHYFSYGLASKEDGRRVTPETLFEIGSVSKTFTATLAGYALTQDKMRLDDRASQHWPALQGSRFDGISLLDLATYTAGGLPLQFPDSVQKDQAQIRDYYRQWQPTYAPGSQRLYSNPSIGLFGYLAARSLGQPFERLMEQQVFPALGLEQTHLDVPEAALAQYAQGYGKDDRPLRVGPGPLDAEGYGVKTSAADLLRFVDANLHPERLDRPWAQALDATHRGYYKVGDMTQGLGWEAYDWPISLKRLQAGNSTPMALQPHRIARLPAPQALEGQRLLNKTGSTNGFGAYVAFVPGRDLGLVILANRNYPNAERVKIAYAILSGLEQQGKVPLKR
T1 sequence (P05364 other isoform, or with tags, fused parts or gaps A266C): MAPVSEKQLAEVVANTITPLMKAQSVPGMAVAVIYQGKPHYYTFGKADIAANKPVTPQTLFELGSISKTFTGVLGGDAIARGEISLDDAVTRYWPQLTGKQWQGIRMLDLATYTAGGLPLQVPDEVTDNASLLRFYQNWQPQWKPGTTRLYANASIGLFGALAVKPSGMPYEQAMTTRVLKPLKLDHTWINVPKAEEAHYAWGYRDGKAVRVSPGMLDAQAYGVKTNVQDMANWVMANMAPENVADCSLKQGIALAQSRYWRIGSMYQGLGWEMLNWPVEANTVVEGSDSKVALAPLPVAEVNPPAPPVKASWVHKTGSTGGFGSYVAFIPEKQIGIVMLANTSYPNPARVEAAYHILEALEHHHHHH
Chain of class A beta-lactamase (penicillinase) TEM-1 (P62593 24-286 limits assumed): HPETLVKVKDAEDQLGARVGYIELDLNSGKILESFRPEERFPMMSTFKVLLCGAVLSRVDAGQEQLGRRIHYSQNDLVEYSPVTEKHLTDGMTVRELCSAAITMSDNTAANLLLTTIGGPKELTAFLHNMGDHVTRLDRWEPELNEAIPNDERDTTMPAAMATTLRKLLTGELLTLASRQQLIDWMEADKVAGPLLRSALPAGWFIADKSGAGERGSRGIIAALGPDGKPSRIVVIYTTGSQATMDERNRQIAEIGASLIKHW

CC1(C)S[C@@H]2[C@H](NC(=O)[C@H](N)c3ccccc3)C(=O)N2[C@H]1C(=O)O [Ampicillin]
rate of P99 class C beta-lactamase ([1]; BLAC1, 1 mg/L): 0.3221 ΔAbs482/min
residual rate minus 1, (vomax/v0)−1, P99 ([1]; BLAC1, 1 mg/L): 0.004
rate of P99 class C beta-lactamase ([1]; BLAC1, 5 mg/L): 0.3207 ΔAbs482/min
residual rate minus 1, (vomax/v0)−1, P99 ([1]; BLAC1, 5 mg/L): 0.008
rate of P99 class C beta-lactamase ([1]; BLAC1, 15 mg/L): 0.3164 ΔAbs482/min
residual rate minus 1, (vomax/v0)−1, P99 ([1]; BLAC1, 15 mg/L): 0.022
rate of P99 class C beta-lactamase ([1]; BLAC1, 30 mg/L): 0.3114 ΔAbs482/min
residual rate minus 1, (vomax/v0)−1, P99 ([1]; BLAC1, 30 mg/L): 0.038
rate of P99 class C beta-lactamase ([1]; BLAC1, 50 mg/L): 0.3008 ΔAbs482/min
residual rate minus 1, (vomax/v0)−1, P99 ([1]; BLAC1, 50 mg/L): 0.075
rate of P99 class C beta-lactamase ([1]; BLAC1, 75 mg/L): 0.2909 ΔAbs482/min
residual rate minus 1, (vomax/v0)−1, P99 ([1]; BLAC1, 75 mg/L): 0.111
rate of P99 class C beta-lactamase ([1]; BLAC1, 100 mg/L): 0.2806 ΔAbs482/min
residual rate minus 1, (vomax/v0)−1, P99 ([1]; BLAC1, 100 mg/L): 0.152
linear regression coefficient a (Y=aX+b), P99 [1]: 0.0015
linear regression coefficient b (Y=aX+b), P99 [1]: 0.0000
Km [2]: 0.4 µM
kcat [2]: 0.74 s⁻¹
rate of Oxa-29 Class D beta-lactamase ([3]; BLAC2, 1 mg/L): 0.1831 ΔAbs482/min
residual rate minus 1, (vomax/v0)−1, Oxa-29 ([3]; BLAC2, 1 mg/L): 0.048
rate of Oxa-29 Class D beta-lactamase ([3]; BLAC2, 5 mg/L): 0.1680 ΔAbs482/min
residual rate minus 1, (vomax/v0)−1, Oxa-29 ([3]; BLAC2, 5 mg/L): 0.142
rate of Oxa-29 Class D beta-lactamase ([3]; BLAC2, 15 mg/L): 0.1532 ΔAbs482/min
residual rate minus 1, (vomax/v0)−1, Oxa-29 ([3]; BLAC2, 15 mg/L): 0.253
rate of Oxa-29 Class D beta-lactamase ([3]; BLAC2, 30 mg/L): 0.1292 ΔAbs482/min
residual rate minus 1, (vomax/v0)−1, Oxa-29 ([3]; BLAC2, 30 mg/L): 0.485
rate of Oxa-29 Class D beta-lactamase ([3]; BLAC2, 50 mg/L): 0.1056 ΔAbs482/min
residual rate minus 1, (vomax/v0)−1, Oxa-29 ([3]; BLAC2, 50 mg/L): 0.817
rate of Oxa-29 Class D beta-lactamase ([3]; BLAC2, 75 mg/L): 0.0869 ΔAbs482/min
residual rate minus 1, (vomax/v0)−1, Oxa-29 ([3]; BLAC2, 75 mg/L): 1.208
rate of Oxa-29 Class D beta-lactamase ([3]; BLAC2, 100 mg/L): 0.0730 ΔAbs482/min
residual rate minus 1, (vomax/v0)−1, Oxa-29 ([3]; BLAC2, 100 mg/L): 1.629
linear regression coefficient a (Y=aX+b), Oxa-29 [3]: 0.0159
linear regression coefficient b (Y=aX+b), Oxa-29 [3]: 0.0002
Km [4]: 3.5 µM
kcat [4]: 4.2 s⁻¹
kcat [5]: 4.4 s⁻¹
Km [5]: 0.5 µM
inhibition of Tem-1 catalyzed reaction [6]: no inhibition of the reaction was observed
Km [7]: 0.4 µM
kcat [7]: 0.53 s⁻¹
kcat [8]: 0.46 s⁻¹
Km [8]: 0.01 µM
Km [9]: 0.2 µM
kcat [9]: 6.5 s⁻¹

CO/N=C(\C(=O)N[C@@H]1C(=O)N2C(C(=O)O)=C(COC(N)=O)CS[C@H]12)c1ccco1 [Cefuroxime]
rate of P99 class C beta-lactamase ([1]; BLAC1, 1 mg/L): 0.3247 ΔAbs482/min
residual rate minus 1, (vomax/v0)−1, P99 ([1]; BLAC1, 1 mg/L): 0.048
rate of P99 class C beta-lactamase ([1]; BLAC1, 5 mg/L): 0.2763 ΔAbs482/min
residual rate minus 1, (vomax/v0)−1, P99 ([1]; BLAC1, 5 mg/L): 0.232
rate of P99 class C beta-lactamase ([1]; BLAC1, 15 mg/L): 0.1938 ΔAbs482/min
residual rate minus 1, (vomax/v0)−1, P99 ([1]; BLAC1, 15 mg/L): 0.756
rate of P99 class C beta-lactamase ([1]; BLAC1, 30 mg/L): 0.1417 ΔAbs482/min
residual rate minus 1, (vomax/v0)−1, P99 ([1]; BLAC1, 30 mg/L): 1.402
rate of P99 class C beta-lactamase ([1]; BLAC1, 50 mg/L): 0.0957 ΔAbs482/min
residual rate minus 1, (vomax/v0)−1, P99 ([1]; BLAC1, 50 mg/L): 2.556
rate of P99 class C beta-lactamase ([1]; BLAC1, 75 mg/L): 0.0736 ΔAbs482/min
residual rate minus 1, (vomax/v0)−1, P99 ([1]; BLAC1, 75 mg/L): 3.624
rate of P99 class C beta-lactamase ([1]; BLAC1, 100 mg/L): 0.0539 ΔAbs482/min
residual rate minus 1, (vomax/v0)−1, P99 ([1]; BLAC1, 100 mg/L): 5.314
linear regression coefficient a (Y=aX+b), P99 [1]: 0.0518
linear regression coefficient b (Y=aX+b), P99 [1]: 0.0013
reaction of immobilized enzyme with chromogenic substrate when antibiotic fixed (P99A266C [10]): did not occur
kcat [2]: 0.05 s⁻¹
Km ([2]; read-out: Km): 0.016 µM
rate of Oxa-29 Class D beta-lactamase ([3]; BLAC2, 1 mg/L): 0.2079 ΔAbs482/min
residual rate minus 1, (vomax/v0)−1, Oxa-29 ([3]; BLAC2, 1 mg/L): 0.072
rate of Oxa-29 Class D beta-lactamase ([3]; BLAC2, 5 mg/L): 0.2025 ΔAbs482/min
residual rate minus 1, (vomax/v0)−1, Oxa-29 ([3]; BLAC2, 5 mg/L): 0.100
rate of Oxa-29 Class D beta-lactamase ([3]; BLAC2, 15 mg/L): 0.2011 ΔAbs482/min
residual rate minus 1, (vomax/v0)−1, Oxa-29 ([3]; BLAC2, 15 mg/L): 0.108
rate of Oxa-29 Class D beta-lactamase ([3]; BLAC2, 30 mg/L): 0.1992 ΔAbs482/min
residual rate minus 1, (vomax/v0)−1, Oxa-29 ([3]; BLAC2, 30 mg/L): 0.118
rate of Oxa-29 Class D beta-lactamase ([3]; BLAC2, 50 mg/L): 0.1897 ΔAbs482/min
residual rate minus 1, (vomax/v0)−1, Oxa-29 ([3]; BLAC2, 50 mg/L): 0.174
rate of Oxa-29 Class D beta-lactamase ([3]; BLAC2, 75 mg/L): 0.1796 ΔAbs482/min
residual rate minus 1, (vomax/v0)−1, Oxa-29 ([3]; BLAC2, 75 mg/L): 0.241
rate of Oxa-29 Class D beta-lactamase ([3]; BLAC2, 100 mg/L): 0.1749 ΔAbs482/min
residual rate minus 1, (vomax/v0)−1, Oxa-29 ([3]; BLAC2, 100 mg/L): 0.274
linear regression coefficient a (Y=aX+b), Oxa-29 [3]: 0.0023
linear regression coefficient b (Y=aX+b), Oxa-29 [3]: 0.0003
kcat [4]: 0.15 s⁻¹
Km ([4]; read-out: Km): 0.15 µM
kcat [5]: 0.05 s⁻¹
Km [5]: 0.02 µM
binding to P99A266C biosensor (FTIR-ATR) (P99A266C [11]): fixed to P99A266C (acyl-enzyme complex)
kcat [7]: 0.05 s⁻¹
kcat [8]: 0.8 s⁻¹
Km [8]: 0.6 µM
kcat [9]: 0.04 s⁻¹
Km ([9]; read-out: Km): 0.02 µM
